What was measured:
PTPN1 (i.e., PTP1B) = target: T1, PTPN1 (i.e., PTP1B) (Homo sapiens, UniProt P18031); experiment: Phosphatase activity assay (DiFMUP substrate), PTP1B; format: biochemical; conditions: compounds binned ≤1 uM or >1 uM
T1 sequence (P18031 1-435): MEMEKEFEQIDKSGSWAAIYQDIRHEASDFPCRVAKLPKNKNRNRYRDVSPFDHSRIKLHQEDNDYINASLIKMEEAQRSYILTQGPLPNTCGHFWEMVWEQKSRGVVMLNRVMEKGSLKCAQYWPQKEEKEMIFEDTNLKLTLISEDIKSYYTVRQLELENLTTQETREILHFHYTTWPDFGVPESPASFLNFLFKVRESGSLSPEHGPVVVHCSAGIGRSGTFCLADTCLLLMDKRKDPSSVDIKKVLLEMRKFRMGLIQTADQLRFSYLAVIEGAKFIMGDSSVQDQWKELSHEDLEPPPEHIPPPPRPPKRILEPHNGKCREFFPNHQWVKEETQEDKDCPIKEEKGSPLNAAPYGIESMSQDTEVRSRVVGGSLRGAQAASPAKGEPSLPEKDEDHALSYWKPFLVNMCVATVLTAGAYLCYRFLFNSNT
How it was run: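 RT, HEPES pH 7.5 buffer with DTT/Tween-20. 10-point inhibitor series premixed ~2 min with enzyme (PTPN2 0.025 ng/ul). Start with DiFMUP at enzyme Km (~45 μM for PTPN2). Read DiFMU ex360/em450 continuously 15–30 min; initial rate vs concentration, 4-parameter fit → IC50.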

PTPN2 (i.e., TC-PTP) = target: T2, PTPN2 (i.e., TC-PTP) (Homo sapiens, UniProt P17706); experiment: Phosphatase activity assay (DiFMUP substrate), PTPN2; format: biochemical; conditions: compounds binned ≤1 uM or >1 uM
T2 sequence (P17706 1-415): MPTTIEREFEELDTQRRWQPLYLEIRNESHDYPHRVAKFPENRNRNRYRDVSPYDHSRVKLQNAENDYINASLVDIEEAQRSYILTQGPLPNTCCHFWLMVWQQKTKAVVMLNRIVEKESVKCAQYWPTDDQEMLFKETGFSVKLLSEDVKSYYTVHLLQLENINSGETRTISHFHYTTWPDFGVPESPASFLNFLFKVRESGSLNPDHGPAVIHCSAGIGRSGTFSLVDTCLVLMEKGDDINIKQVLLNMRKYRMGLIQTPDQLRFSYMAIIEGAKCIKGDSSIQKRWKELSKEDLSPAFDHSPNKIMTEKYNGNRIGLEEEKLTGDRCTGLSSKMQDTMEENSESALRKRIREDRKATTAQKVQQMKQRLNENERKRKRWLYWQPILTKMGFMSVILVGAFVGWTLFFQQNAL
How it was run: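 Enzyme (e.g. PTPN2 0.025 ng/ul) mixed about 2 min with compound at 10 serial concentrations in 50 mM HEPES pH 7.5, 150 mM NaCl, 0.5 mM EDTA, 1 mM DTT, 0.001% Tween-20 at room temperature. DiFMUP added at each enzyme's Km (about 45 μM for PTPN2). DiFMU fluorescence (ex 360/em 450 nm) followed 15-30 min; IC50 from 4-parameter fit of rates.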

Row | Compound | IC50 (PTPN1 (i.e., PTP1B)) | IC50 (PTPN2 (i.e., TC-PTP))
1 | NC(=O)Cc1cc(-c2ccc(O)c(N3CC(=O)NS3(=O)=O)c2F)[nH]n1 [Compound 520, 2-(5-(3-(1,1-dioxido-4-oxo-1,2,5-thiadiazolidin-2-yl)-2-fluoro-4-hydroxyphenyl)-1H-pyrazol-3-yl)acetamide] | ≤ 1000 nM | ≤ 1000 nM
2 | O=C1CN(c2c(O)ccc(-c3nnc(-c4ccccc4)o3)c2F)S(=O)(=O)N1 [Compound 121, 5-(2-fluoro-6-hydroxy-3-(5-phenyl-1,3,4-oxadiazol-2-yl)phenyl)-1,2,5-thiadiazolidin-3-one 1,1-dioxide] | > 1000 nM | > 1000 nM
3 | O=C1CN(c2c(O)ccc(-c3cc(C(=O)N4CCOCC4)n[nH]3)c2F)S(=O)(=O)N1 [Compound 336, 5-(2-fluoro-6-hydroxy-3-(3-(morpholine-4-carbonyl)-1H-pyrazol-5-yl)phenyl)-1,2,5-thiadiazolidin-3-one 1,1-dioxide] | ≤ 1000 nM | ≤ 1000 nM
4 | COC(=O)n1nc(-c2ccc(O)c(N3CC(=O)NS3(=O)=O)c2F)cc1C1CC1 [Compound 536, methyl 5-cyclopropyl-3-(3-(1,1-dioxido-4-oxo-1,2,5-thiadiazolidin-2-yl)-2-fluoro-4-hydroxyphenyl)-1H-pyrazole-1-carboxylate] | ≤ 1000 nM | ≤ 1000 nM
5 | O=C1C=C(c2c(O)ccc(-c3cc(C4CC4)n[nH]3)c2F)S(=O)(=O)N1 [Compound 400, 5-(3-(3-cyclopropyl-1H-pyrazol-5-yl)-2-fluoro-6-hydroxyphenyl)isothiazol-3(2H)-one 1,1-dioxide] | ≤ 1000 nM | ≤ 1000 nM
6 | O=C1CN(c2c(O)ccc(-c3cnc(C4CC4)[nH]3)c2F)S(=O)(=O)N1 [Compound 406, 5-(3-(2-cyclopropyl-1H-imidazol-5-yl)-2-fluoro-6-hydroxyphenyl)-1,2,5-thiadiazolidin-3-one 1,1-dioxide] | ≤ 1000 nM | ≤ 1000 nM
7 | CC1CCC(n2cc(-c3ccc(O)c(N4CC(=O)NS4(=O)=O)c3F)cn2)CC1 (stereo not shown) [Compound 304, 5-(2-fluoro-6-hydroxy-3-(1-(4-methylcyclohexyl)-1H-pyrazol-4-yl)phenyl)-1,2,5-thiadiazolidin-3-one 1,1-dioxide] | ≤ 1000 nM | ≤ 1000 nM
8 | O=C1CN(c2c(O)ccc(-c3cc(C4CC4)n[nH]3)c2F)S(=O)(=O)N1 [Compound 421, 5-(3-(3-cyclopropyl-1H-pyrazol-5-yl)-2-fluoro-6-hydroxyphenyl)-1,2,5-thiadiazolidin-3-one 1,1-dioxide] | ≤ 1000 nM | ≤ 1000 nM
9 | O=C1CN(c2c(O)ccc(-c3cn(-c4ccccc4F)cn3)c2F)S(=O)(=O)N1 [Compound 437, 5-(2-fluoro-3-(1-(2-fluorophenyl)-1H-imidazol-4-yl)-6-hydroxyphenyl)-1,2,5-thiadiazolidin-3-one 1,1-dioxide] | ≤ 1000 nM | ≤ 1000 nM
10 | Nc1nc2c(-c3ccc(O)c(N4CC(=O)NS4(=O)=O)c3F)ccc(F)c2s1 [Compound 151, 5-(3-(2-amino-7-fluorobenzo[d]thiazol-4-yl)-2-fluoro-6-hydroxyphenyl)-1,2,5-thiadiazolidin-3-one 1,1-dioxide] | ≤ 1000 nM | > 1000 nM
11 | CC(C)CCn1cc(-c2ccc(O)c(N3CC(=O)NS3(=O)=O)c2Cl)cn1 [Compound 175, 5-(2-chloro-6-hydroxy-3-(1-isopentyl-1H-pyrazol-4-yl)phenyl)-1,2,5-thiadiazolidin-3-one 1,1-dioxide] | ≤ 1000 nM | ≤ 1000 nM
12 | O=C1CN(c2c(O)ccc(C3=CCN(C4CC4)C3)c2F)S(=O)(=O)N1 [Compound 296, 5-(3-(1-cyclopropyl-2,5-dihydro-1H-pyrrol-3-yl)-2-fluoro-6-hydroxyphenyl)-1,2,5-thiadiazolidin-3-one 1,1-dioxide] | ≤ 1000 nM | ≤ 1000 nM
13 | O=C1CN(c2c(O)ccc(-c3cnn(C4CCCOC4)c3)c2F)S(=O)(=O)N1 (stereo not shown) [Compound 351, 5-(2-fluoro-6-hydroxy-3-(1-(tetrahydro-2H-pyran-3-yl)-1H-pyrazol-4-yl)phenyl)-1,2,5-thiadiazolidin-3-one 1,1-dioxide] | ≤ 1000 nM | ≤ 1000 nM
14 | O=C1CN(c2c(O)ccc(-c3cnn(CC4(Cl)CCC4)c3)c2F)S(=O)(=O)N1 [Compound 387, 5-(3-(1-((1-chlorocyclobutyl)methyl)-1H-pyrazol-4-yl)-2-fluoro-6-hydroxyphenyl)-1,2,5-thiadiazolidin-3-one 1,1-dioxide] | ≤ 1000 nM | ≤ 1000 nM
15 | Cn1nc(-c2ccc(O)c(N3CC(=O)NS3(=O)=O)c2F)cc1CCC1CC1 [Compound 463, 5-(3-(5-(2-cyclopropylethyl)-1-methyl-1H-pyrazol-3-yl)-2-fluoro-6-hydroxyphenyl)-1,2,5-thiadiazolidin-3-one 1,1-dioxide] | ≤ 1000 nM | ≤ 1000 nM
16 | O=C1CN(c2c(O)ccc(-c3cnn(CC(F)F)c3)c2F)S(=O)(=O)N1 [Compound 525, 5-(3-(1-(2,2-difluoroethyl)-1H-pyrazol-4-yl)-2-fluoro-6-hydroxyphenyl)-1,2,5-thiadiazolidin-3-one 1,1-dioxide] | ≤ 1000 nM | ≤ 1000 nM
17 | Cn1cc(-c2ccc(O)c(N3CC(=O)NS3(=O)=O)c2F)c(C(F)(F)F)n1 [Compound 192, 5-(2-fluoro-6-hydroxy-3-(1-methyl-3-(trifluoromethyl)-1H-pyrazol-4-yl)phenyl)-1,2,5-thiadiazolidin-3-one 1,1-dioxide] | ≤ 1000 nM | > 1000 nM
18 | O=C1CN(c2c(O)ccc(-c3n[nH]c4ccccc34)c2F)S(=O)(=O)N1 [Compound 168, 5-(2-fluoro-6-hydroxy-3-(1H-indazol-3-yl)phenyl)-1,2,5-thiadiazolidin-3-one 1,1-dioxide] | > 1000 nM | > 1000 nM
19 | N#CC1(n2cc(-c3ccc(O)c(N4CC(=O)NS4(=O)=O)c3F)c(F)n2)CC1 [Compound 474, 1-(4-(3-(1,1-dioxido-4-oxo-1,2,5-thiadiazolidin-2-yl)-2-fluoro-4-hydroxyphenyl)-3-fluoro-1H-pyrazol-1-yl)cyclopropane-1-carbonitrile] | ≤ 1000 nM | ≤ 1000 nM
20 | O=C1CN(c2c(O)ccc(-c3cn(-c4ccccc4)cn3)c2F)S(=O)(=O)N1 [Compound 190, 5-(2-fluoro-6-hydroxy-3-(1-phenyl-1H-imidazol-4-yl)phenyl)-1,2,5-thiadiazolidin-3-one 1,1-dioxide] | ≤ 1000 nM | ≤ 1000 nM
21 | CCCC1C=C(c2ccc(O)c(N3CC(=O)NS3(=O)=O)c2F)CN1 (stereo not shown) [Compound 515, 5-(2-fluoro-6-hydroxy-3-(5-propyl-2,5-dihydro-1H-pyrrol-3-yl)phenyl)-1,2,5-thiadiazolidin-3-one 1,1-dioxide] | ≤ 1000 nM | ≤ 1000 nM
22 | CC(C)CCn1cnc(-c2ccc(O)c(C3CC(=O)NS3(=O)=O)c2F)c1 (stereo not shown) [Compound 246, 5-(2-fluoro-6-hydroxy-3-(1-isopentyl-1H-imidazol-4-yl)phenyl)isothiazolidin-3-one 1,1-dioxide] | > 1000 nM | > 1000 nM
23 | O=C1CN(c2c(O)ccc(-c3cnn(C4CC5CCC(C4)O5)c3)c2F)S(=O)(=O)N1 (stereo not shown) [Compound 465, 5-(3-(1-(8-oxabicyclo[3.2.1]octan-3-yl)-1H-pyrazol-4-yl)-2-fluoro-6-hydroxyphenyl)-1,2,5-thiadiazolidin-3-one 1,1-dioxide] | ≤ 1000 nM | ≤ 1000 nM
24 | O=C1CN(c2c(O)ccc(-c3cc(C4CC4)n(CC4CCCN4)n3)c2F)S(=O)(=O)N1 (stereo not shown) [Compound 382, 5-(3-(5-cyclopropyl-1-(pyrrolidin-2-ylmethyl)-1H-pyrazol-3-yl)-2-fluoro-6-hydroxyphenyl)-1,2,5-thiadiazolidin-3-one 1,1-dioxide] | ≤ 1000 nM | ≤ 1000 nM
25 | O=C1CN(c2c(O)ccc(-c3ccc(=O)n(Cc4ccccc4)c3)c2F)S(=O)(=O)N1 [Compound 220, 5-(3-(1-benzyl-6-oxo-1,6-dihydropyridin-3-yl)-2-fluoro-6-hydroxyphenyl)-1,2,5-thiadiazolidin-3-one 1,1-dioxide] | ≤ 1000 nM | ≤ 1000 nM
26 | N#C[C@H]1CC[C@@H](n2cc(-c3ccc(O)c(N4CC(=O)NS4(=O)=O)c3F)cn2)CC1 [Compound 280, (1s,4s)-4-(4-(3-(1,1-dioxido-4-oxo-1,2,5-thiadiazolidin-2-yl)-2-fluoro-4-hydroxyphenyl)-1H-pyrazol-1-yl)cyclohexane-1-carbonitrile] | ≤ 1000 nM | ≤ 1000 nM

From US20240398828A1, “HETERO-ATOM CONTAINING COMPOUNDS AND USES THEREOF” (Kumquat Biosciences Inc., priority 2021, published 2024)
